Experimental findings from paper PMC9706563, “Development of Macrocyclic PRMT5–Adaptor Protein Interaction Inhibitors” (Journal of Medicinal Chemistry, 2022) are described below.

SMILES strings stand for the structures.

Assay type in all cases: binding
One test concerns the target T1, TIM-MEP50 complex (Homo sapiens, UniProt O14744).
T1 construct: made in house
Description: Thermal shift assay (TSA). As for the experimental part: Thermal Shift Assays of peptides on the TIM-MEP50 complex were carried out in a 96-well PCR plate (LightCycler 480 Multiwell Plates 96, white, 04729692001). The purified protein complex was appropriately diluted in a buffer containing 50 mM HEPES (pH = 8.0), 250 mM NaCl, and 1 mM TCEP. All assay experiments used 5.36 μg of protein per well and […] 5000X Sypro Orange (Invitrogen) up to a total volume of 25 μL, with a resultant protein concentration of 3 μM and 5X SYPRO. Peptides were supplied at 10 mM concentration in DMSO. The PCR plates were sealed with an optical seal (LightCycler 480 Sealing Foil, 04729757001), shaken, and centrifuged after protein and compounds were added. Thermal scanning (25–95 °C at 1 °C/min) was performed using a real-time PCR setup (LightCycler 480 – Roche), and fluorescence intensity was measured after every temperature increment step. Analysis of the raw data was performed using internally developed software. Statistical validation of Tm shift relevance was performed using the Student’s t test (n = 6).

For test [1], the target named is T2, PRMT5-MEP50 / RioK1 interaction (Homo sapiens, UniProt O14744).
T2 construct: expressed in transfected cells; host or cells: Flp-In T-REx 293
T2 sequence (O14744 whole entry): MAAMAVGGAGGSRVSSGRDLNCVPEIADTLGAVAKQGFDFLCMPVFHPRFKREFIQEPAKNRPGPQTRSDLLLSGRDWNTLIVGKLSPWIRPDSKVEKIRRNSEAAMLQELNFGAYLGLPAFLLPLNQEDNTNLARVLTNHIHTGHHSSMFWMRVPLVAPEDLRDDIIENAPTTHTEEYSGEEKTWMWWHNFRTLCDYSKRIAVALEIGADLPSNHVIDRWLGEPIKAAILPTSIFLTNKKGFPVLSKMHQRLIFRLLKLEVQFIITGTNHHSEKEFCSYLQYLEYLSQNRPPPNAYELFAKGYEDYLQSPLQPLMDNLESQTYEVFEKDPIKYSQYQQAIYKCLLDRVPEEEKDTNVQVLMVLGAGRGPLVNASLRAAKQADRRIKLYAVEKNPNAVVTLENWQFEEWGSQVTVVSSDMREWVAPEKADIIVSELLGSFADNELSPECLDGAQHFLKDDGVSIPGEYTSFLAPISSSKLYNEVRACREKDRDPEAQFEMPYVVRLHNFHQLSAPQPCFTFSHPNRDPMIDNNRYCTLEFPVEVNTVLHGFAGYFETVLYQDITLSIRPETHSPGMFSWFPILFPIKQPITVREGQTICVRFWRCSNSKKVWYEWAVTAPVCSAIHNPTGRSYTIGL
T2 sequence (Q9BQA1 whole entry partner): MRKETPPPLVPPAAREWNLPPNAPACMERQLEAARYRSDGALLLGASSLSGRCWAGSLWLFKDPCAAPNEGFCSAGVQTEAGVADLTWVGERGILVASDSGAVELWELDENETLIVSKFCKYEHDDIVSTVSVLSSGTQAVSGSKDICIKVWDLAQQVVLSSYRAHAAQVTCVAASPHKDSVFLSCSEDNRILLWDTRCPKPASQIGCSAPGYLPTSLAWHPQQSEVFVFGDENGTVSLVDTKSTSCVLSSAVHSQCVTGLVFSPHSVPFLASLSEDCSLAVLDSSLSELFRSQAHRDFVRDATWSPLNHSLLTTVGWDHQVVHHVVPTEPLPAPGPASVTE
Nature of the test: GFP immunopurification from Flp-In T-REx 293 S100 extracts, RioK1 readout. Particulars: 50 μM. As for the experimental part: (§1) Harvested Flp-In T-Rex 293 cells were incubated with Roeder A buffer[32] in three times sample weight for 10 min at room temperature, dounced 10 times, and adjusted to 150 mM NaCl. After centrifugation at 17,000 g for 30 min, the supernatants (S100 extracts) were used for immunopurification and treatment with inhibitors.
(§2) For the treatment, the S100 extracts of GFP, GFP-PRMT5, GFP-RioK1, and GFP-pICln were incubated with DMSO, active 53, and scrambled 54, used at a concentration of 50 μM. The incubation with the S100 extract was carried out for 1 h at room temperature. For GFP immunopurification, S100 extracts were incubated with GFP-Trap_A beads (ChromoTek) at 4 °C for 2 h with rotation. Purified proteins were washed 3 times with washing buffer (150 mM NaCl, 50 mM Tris/HCl pH 7.5, 1 mM EDTA, 1 mM EGTA, and 0.01% Igepal with protease inhibitors), eluted in sample buffer [375 mM Tris pH 7.5; 25.8% (w/v) glycerol; 12.3% (w/v) SDS; 0.06% (w/v) bromophenol blue; and 6% (v/v) β-mercaptoethanol; pH 6.8], and analyzed by immunoblotting.
(§3) Immunopurification samples were separated by Tris/Tricine or Tris/Glycine SDS gel electrophoresis[33] and transferred to PVDF membranes (Immobilon-FL, Merck Millipore). The immunoblot analysis was performed using the indicated antibodies against RioK1, PRMT5, MEP50, pICln, and GFP, and the signals were detected with an Odyssey LI-COR Imaging System.

The target of a further test is T3, PRMT5-MEP50 complex (Homo sapiens, UniProt O14744).
T3 construct: endogenous in cells; host or cells: MCF7
T3 sequence (O14744 whole entry): as the sequence (O14744 whole entry) above
T3 sequence (Q9BQA1 whole entry partner): as the sequence (Q9BQA1 whole entry partner) above
Nature of the test: Pull-down with peptides immobilized on DBCO beads, MCF7 cell lysate. Particulars: 100 μM nonimmobilized peptide in MCF7 lysate. As for the experimental part:
DBCO agarose beads (300 μL; Jena Bioscience, Germany) were washed three times with PBS (600 μL, pH 7.4). To the beads suspended in PBS (600 μL) was added a 10 mM solution of azide-labeled peptide in DMSO or pure DMSO. The obtained suspensions were incubated overnight at 4 °C. The beads were washed with PBS three times for 10 min. MCF7 cells were harvested and lysed using Triton X100 lysis buffer (NaCl 150 mM, HEPES 25 mM, TCEP 1 mM, 1% Triton x100, 1% NP40 alternative, protease, and phosphatase inhibitor, pH 7.4). Empty beads, beads bound to an active peptide (55), or beads bound to a scrambled peptide (56) were added to the lysate (6 mg/mL) and rotated at 4 °C overnight. Beads attached to the active peptides were also incubated in the lysate containing a nonimmobilized/free active macrocycle (53 at 100 μM). Beads were collected by centrifugation (800g for 1 min) and washed three times for 10 min with PBS (500 μL). The beads were suspended in SDS-PAGE protein loading buffer (20 uL; […], 8% v/v glycerol, 2% SDS, […] (DTE), 0.02% bromophenol blue, pH 6.8), heated with shaking for 10 min at 95 °C, and centrifuged at 350 rpm. The obtained solutions were analyzed by western blotting using 10% acrylamide gels, and PVDF membranes and the relevant proteins were fluorescently detected using antibodies against PRMT5 and MEP50 and the corresponding secondary IRDye antibodies.

The target in test [2] is T4, PRMT5-MEP50 / pICln interaction (Homo sapiens, UniProt O14744).
T4 construct: expressed in transfected cells; host or cells: Flp-In T-REx 293
T4 sequence (O14744 whole entry): as the sequence (O14744 whole entry) above
T4 sequence (Q9BQA1 whole entry partner): as the sequence (Q9BQA1 whole entry partner) above
Nature of the test: GFP immunopurification from Flp-In T-REx 293 S100 extracts, pICln readout. The following applies: 50 μM. As for the experimental part:
as §1, §2, §3

T1 sequence (O14744 13-292 limits assumed): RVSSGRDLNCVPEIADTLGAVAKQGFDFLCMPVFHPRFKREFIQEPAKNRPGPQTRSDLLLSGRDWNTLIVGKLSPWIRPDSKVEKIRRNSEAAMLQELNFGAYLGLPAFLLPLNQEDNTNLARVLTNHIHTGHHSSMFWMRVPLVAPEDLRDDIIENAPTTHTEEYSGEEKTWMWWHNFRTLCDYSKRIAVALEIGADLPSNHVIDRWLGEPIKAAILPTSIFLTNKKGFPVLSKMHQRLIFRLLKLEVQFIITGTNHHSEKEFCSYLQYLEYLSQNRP
T1 sequence (Q9BQA1 whole entry partner): as the sequence (Q9BQA1 whole entry partner) above

Consider `CC(=O)N[C@H](C(=O)N1CCC[C@H]1C(=O)NC1CCCCC[C@@H](C(=O)N[C@@H](CC(=O)O)C(=O)N[C@@H](C)C(=O)N[C@@H](CC(C(=O)O)C(=O)O)C(N)=O)NC(=O)[C@H](Cc2ccc([N+](=O)[O-])cc2)NC(=O)[C@H](CCC(N)=O)NC1=O)C(C)C` (stereo in doubt) [Compound 53], for which the “increase of the average melting temperature” value on TIM-MEP50 complex (TSA, PRMT5 TIM barrel-MEP50 complex, n = 6) came to 2.27 °C. The “TSA Average Tm (°C)” value at TIM-MEP50 complex (supplementary CSV) turned out to be 51.75 ± 0.42 °C. Moreover, the “enrichment of RioK1 with GFP-PRMT5” value in test [1] (GFP-PRMT5 IP) is on record as “enrichment of RioK1 was blocked”. Besides, in test [1] (GFP-RioK1 IP), the “interaction of RioK1 with PRMT5-MEP50” value is “fully inhibited RioK1 from interacting with the PRMT5-MEP50 complex”. For the same compound, the “competition of free peptide with immobilized 55” value at PRMT5-MEP50 complex was “demonstrated competition between the immobilized and free peptide”. Also, the “binding of pICln to the complex with GFP-PRMT5” value in test [2] (GFP-PRMT5 IP) is given as “binding of pICln to the complex was not inhibited”. The “interaction of pICln with PRMT5-MEP50” value in test [2] (GFP-pICln IP) is given as “pICln still engaged with it”.
